Source: ChEMBL document CHEMBL1201862, “PubChem BioAssay data set” (2004)
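A five-concentration, 48-hour dose response in 96-well plates underlies each endpoint, interpolated linearly between surrounding concentrations. GI50: concentration for 50% inhibition of growth.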 Active and inactive are the calls of the source. No stated cut-off is given here; in the data, active = GI50 up to about 1.1 µM and inactive = higher.

How the values were obtained:
Assay in all cases: NCI anticancer screen, dose series, 48 h
786-0 = test system: 786-0
A498 = test system: A498
A549 = test system: A549
ACHN = test system: ACHN
BT-549 = test system: BT-549
CAKI-1 = test system: CAKI-1
CCRF-CEM = test system: CCRF-CEM
COLO 205 = test system: COLO 205
DLD-1 = test system: DLD-1
DMS-114 = test system: DMS-114
DMS-273 = test system: DMS-273
DU-145 = test system: DU-145
EKVX = test system: EKVX
HCC 2998 = test system: HCC 2998
HCT-116 = test system: HCT-116
HCT-15 = test system: HCT-15
HL-60 = test system: HL-60
HOP-18 = test system: HOP-18
HOP-62 = test system: HOP-62
HOP-92 = test system: HOP-92
HT-29 = test system: HT-29
Hs-578T = test system: Hs-578T
IGROV-1 = test system: IGROV-1
K562 = test system: K562
KM-20L2 = test system: KM-20L2
KM12 = test system: KM12
LOX IMVI = test system: LOX IMVI
LXFL 529 = test system: LXFL 529
M14 = test system: M14
M19-MEL = test system: M19-MEL
MCF7 = test system: MCF7
MDA-MB-231 = test system: MDA-MB-231
MDA-MB-435 = test system: MDA-MB-435
MDA-N = test system: MDA-N
MOLT-4 = test system: MOLT-4
Malme-3M = test system: Malme-3M
NCI-H226 = test system: NCI-H226
NCI-H23 = test system: NCI-H23
NCI-H460 = test system: NCI-H460
NCI-H522 = test system: NCI-H522
NCI/ADR-RES = test system: NCI/ADR-RES
OVCAR-3 = test system: OVCAR-3
OVCAR-4 = test system: OVCAR-4
OVCAR-5 = test system: OVCAR-5
OVCAR-8 = test system: OVCAR-8
PC-3 = test system: PC-3
RPMI-8226 = test system: RPMI-8226
RXF 393 = test system: RXF 393
RXF 631 = test system: RXF 631
SF-268 = test system: SF-268
SF-295 = test system: SF-295
SF-539 = test system: SF-539
SK-MEL-28 = test system: SK-MEL-28
SK-MEL-2 = test system: SK-MEL-2
SK-MEL-5 = test system: SK-MEL-5
SK-OV-3 = test system: SK-OV-3
SN12C = test system: SN12C
SNB-19 = test system: SNB-19
SNB-75 = test system: SNB-75
SNB-78 = test system: SNB-78
SR = test system: SR
SW-620 = test system: SW-620
T47D = test system: T47D
TK-10 = test system: TK-10
U-251 = test system: U-251
UACC-257 = test system: UACC-257
UACC-62 = test system: UACC-62
UO-31 = test system: UO-31
XF498 = test system: XF498

O=[N+]([O-])c1ccc(C2=Nn3c(nnc3-c3ccc(Cl)cc3)SC2)o1
GI50 (786-0): 10000 nM (inactive)
GI50 (A498): 16900 nM (inactive)
GI50 (A549): 14300 nM (inactive)
GI50 (ACHN): 13900 nM (inactive)
GI50 (BT-549): 11400 nM (inactive)
GI50 (CAKI-1): 9200 nM (inactive)
GI50 (CCRF-CEM): 2650 nM (inactive)
GI50 (COLO 205): 2050 nM (inactive)
GI50 (DLD-1): 2060 nM (inactive)
GI50 (DMS-114): 4110 nM (inactive)
GI50 (DMS-273): 14000 nM (inactive)
GI50 (DU-145): 19200 nM (inactive)
GI50 (EKVX): 10700 nM (inactive)
GI50 (HCC 2998): 2390 nM (inactive)
GI50 (HCT-116): 5710 nM (inactive)
GI50 (HCT-15): 2330 nM
GI50 (HL-60): 989 nM (active)
GI50 (HOP-18): 19200 nM (inactive)
GI50 (HOP-62): 9120 nM (inactive)
GI50 (HOP-92): 3290 nM (inactive)
GI50 (HT-29): 3220 nM (inactive)
GI50 (Hs-578T): 5830 nM (inactive)
GI50 (IGROV-1): 6000 nM (inactive)
GI50 (K562): 2160 nM (inactive)
GI50 (KM-20L2): 5940 nM (inactive)
GI50 (KM12): 7930 nM (inactive)
GI50 (LOX IMVI): 3930 nM (inactive)
GI50 (LXFL 529): 4670 nM (inactive)
GI50 (M14): 5460 nM (inactive)
GI50 (M19-MEL): 2780 nM (inactive)
GI50 (MCF7): 1880 nM (inactive)
GI50 (MDA-MB-231): 3240 nM (inactive)
GI50 (MDA-MB-435): 2080 nM (inactive)
GI50 (MDA-N): 6170 nM (inactive)
GI50 (MOLT-4): 3280 nM (inactive)
GI50 (Malme-3M): 6460 nM (inactive)
GI50 (NCI-H226): 16400 nM (inactive)
GI50 (NCI-H23): 7940 nM (inactive)
GI50 (NCI-H460): 6750 nM (inactive)
GI50 (NCI-H522): 923 nM (active)
GI50 (NCI/ADR-RES): 14300 nM (inactive)
GI50 (OVCAR-3): 3980 nM (inactive)
GI50 (OVCAR-4): 3110 nM (inactive)
GI50 (OVCAR-5): 18300 nM (inactive)
GI50 (OVCAR-8): 9910 nM (inactive)
GI50 (PC-3): 5320 nM (inactive)
GI50 (RPMI-8226): 2100 nM (inactive)
GI50 (RXF 393): 11500 nM (inactive)
GI50 (RXF 631): 10900 nM (inactive)
GI50 (SF-268): 10800 nM (inactive)
GI50 (SF-295): 10900 nM (inactive)
GI50 (SF-539): 8810 nM (inactive)
GI50 (SK-MEL-28): 12200 nM (inactive)
GI50 (SK-MEL-2): 10500 nM (inactive)
GI50 (SK-MEL-5): 10800 nM (inactive)
GI50 (SK-OV-3): 19300 nM (inactive)
GI50 (SN12C): 8380 nM (inactive)
GI50 (SNB-19): 13300 nM (inactive)
GI50 (SNB-75): 11500 nM (inactive)
GI50 (SNB-78): 15800 nM (inactive)
GI50 (SR): 394 nM (active)
GI50 (SW-620): 2370 nM (inactive)
GI50 (T47D): 5450 nM (inactive)
GI50 (TK-10): 14900 nM (inactive)
GI50 (U-251): 14100 nM (inactive)
GI50 (UACC-257): 7380 nM (inactive)
GI50 (UACC-62): 11100 nM (inactive)
GI50 (UO-31): 3500 nM (inactive)
GI50 (XF498): 14300 nM (inactive)

C/C(=N\NC(=S)N1CC2CCC(CC2)C1)c1nccs1
GI50 (786-0): 250 nM (active)
GI50 (A498): 1800 nM (inactive)
GI50 (A549): 190 nM (active)
GI50 (ACHN): 300 nM (active)
GI50 (BT-549): 1070 nM (active)
GI50 (CAKI-1): 634 nM (active)
GI50 (CCRF-CEM): < 10 nM (active)
GI50 (COLO 205): 14.5 nM (active)
GI50 (DLD-1): 42.3 nM (active)
GI50 (DMS-114): < 14.8 nM (active)
GI50 (DMS-273): 127 nM (active)
GI50 (DU-145): 255 nM (active)
GI50 (EKVX): 78.9 nM (active)
GI50 (HCC 2998): 268 nM (active)
GI50 (HCT-116): < 18.7 nM (active)
GI50 (HCT-15): 51.6 nM
GI50 (HL-60): < 10 nM (active)
GI50 (HOP-18): 327 nM (active)
GI50 (HOP-62): 395 nM (active)
GI50 (HOP-92): 646 nM (active)
GI50 (HT-29): 70 nM (active)
GI50 (Hs-578T): 6100 nM (inactive)
GI50 (IGROV-1): 158 nM (active)
GI50 (K562): < 10 nM (active)
GI50 (KM-20L2): < 10 nM (active)
GI50 (KM12): 133 nM (active)
GI50 (LOX IMVI): 271 nM (active)
GI50 (LXFL 529): 20.1 nM (active)
GI50 (M14): 249 nM (active)
GI50 (M19-MEL): 288 nM (active)
GI50 (MCF7): < 25.8 nM (active)
GI50 (MDA-MB-435): 413 nM (active)
GI50 (MOLT-4): < 19.6 nM (active)
GI50 (Malme-3M): 435 nM (active)
GI50 (NCI-H226): 479 nM (active)
GI50 (NCI-H23): 434 nM (active)
GI50 (NCI-H460): 48.3 nM (active)
GI50 (NCI-H522): 47.1 nM (active)
GI50 (NCI/ADR-RES): < 29.5 nM (active)
GI50 (OVCAR-3): 41.5 nM (active)
GI50 (OVCAR-4): 261 nM (active)
GI50 (OVCAR-5): 143 nM (active)
GI50 (OVCAR-8): 114 nM (active)
GI50 (PC-3): 228 nM (active)
GI50 (RPMI-8226): 34.7 nM (active)
GI50 (RXF 393): 336 nM (active)
GI50 (RXF 631): 518 nM (active)
GI50 (SF-268): 294 nM (active)
GI50 (SF-295): 296 nM (active)
GI50 (SF-539): 307 nM (active)
GI50 (SK-MEL-28): 1100 nM (active)
GI50 (SK-MEL-2): 679 nM (active)
GI50 (SK-MEL-5): 153 nM (active)
GI50 (SK-OV-3): 809 nM (active)
GI50 (SN12C): 853 nM (active)
GI50 (SNB-19): 741 nM (active)
GI50 (SNB-75): 3330 nM (inactive)
GI50 (SNB-78): 10300 nM (inactive)
GI50 (SR): 71.6 nM (active)
GI50 (SW-620): 110 nM (active)
GI50 (TK-10): 975 nM (active)
GI50 (U-251): 185 nM (active)
GI50 (UACC-257): 113 nM (active)
GI50 (UACC-62): 132 nM (active)
GI50 (UO-31): 129 nM (active)
GI50 (XF498): 2300 nM (inactive)
